2 compounds from patent EP0748311B1, “THERAPEUTIC BENZONITRILES” (THE WELLCOME FOUNDATION LIMITED, priority 1994, dated 1995) can be followed below.

In one data set the test system is HIV-1 (strain 3B). The data set is described as follows: HIV assay: reversal of the cytopathic effect of HIV infection in MT4 cells (propidium iodide dye uptake). The format is cell-based. The settings on record: Human immunodeficiency virus 1, 120 h, Anti-HIV-1 activity, day 5 post infection. As to the method: Anti-HIV activity of compounds of the invention was determined using the method of Averett D.R., J.Virol. Methods, […], 23, 263-276, by measuring the ability of the compound to reverse the cytopathic effect of HIV infection. This was determined by a quantitative assessment of cell growth monitored at the fifth day post infection by a propidium iodide dye uptake test. MT4 cells were incubated with 100XTCID50 of HIV-1 (strain 3B) or HIV-2 (strain ZY) for one hour prior to addition of the compound in six different concentrations varying from 2 to 200 µM. The cells were allowed to incubate for five days at 37°C. On day 5, NP-40, a detergent, was added to a final concentration of 0.5% immediately prior to analysis. Cell number was determined using a method which measures the fluorescence of a dye (propidium iodide) which binds to DNA. Since the amount of DNA is directly proportional to cell number, this fluorescence assay is an indication of cell growth. While uninfected cells double in cell number several times during the five days duration of the assay, HIV-infected cells grow very little, if at all. A compound which reverses the cytopathic effect of HIV would allow for rapid cell growth, approaching that of the mock-infected cells. […]
Background: Protection from cytopathic effect is a common read-out in antiviral testing.

The nature of data set [1]: Cytotoxicity: inhibition of cell growth. The settings on record: human. The format is cell-based. On the procedure: Compounds of the invention were tested for the inhibition of growth of human T-cells (Molt 4), B-cells (IM9) and CEM cells by the method of Averett, D.R., J. Virol. Methods, 23, 263-276 (1989). Cells were grown as described in Prus, K.L., et al., Cancer Res., 50(6), 1817-1821 (1990).

A further data set has as its system male Lewis rats. The data set is described as follows: Carrageenan pleurisy assay (4 hour). It is filed as in vivo. The settings on record: 4 h after carrageenan, relative to solvent (vehicle) control animals; for % INHIBITION CELLS: inflammatory cells (neutrophils) in pleural exudate; for % INHIBITION EDEMA: pleural edema. As to the method: The antiinflammatory activity of compounds of the invention was determined by the procedure of Vinegar, R. et al., Proc. Soc. Exp. Biol. Med., 1981, 168, 24-32, using male Lewis rats of 150 ± 20 grams. The carrageenan dose was 0.075 mg/rat. Pleural exudate was harvested four hours after injection of carageenan. Acute antiinflammatory activity was determined by inhibition of pleural edema and infammatory cells (neutrophils) from a negative (vehicle) control group.
Acute Anti-inflammatory Activity of Compounds in the 4 Hour Carrageenan Pleurisy Assay in Rats

As a reminder, the IC50 is the point on the concentration scale where inhibition reaches its midpoint.

Read-outs that look alike come from different tables or passages of the source.

For the compound `COc1cccc(S(=O)(=O)c2cccc(N)c2C#N)c1` [Example 2, 2-Amino-6-[(3-methoxyphenyl)sulfonyl]benzonitrile], the concentration for half-maximal inhibition (IC50) in the data set with HIV-1 (strain 3B) stood at 920 ± 40 nM.

As to `Cc1cc(C)cc(S(=O)(=O)c2cccc(N)c2C#N)c1` [Example 4, 2-Amino-6-[(3,5-dimethylphenyl)sulfonyl]benzontrile], the viability at 100 µM in data set [1] (cem cells, read-out: % of Cells Surviving at 100 µM) stood at 70%; in data set [1] (im9 cells, read-out: % of Cells Surviving at 100 µM), 97%; in data set [1] (molt 4 cells, Molt4, read-out: % of Cells Surviving at 100 µM), 91%. The IC50 in the data set with HIV-1 (strain 3B) was 14 ± 1 nM. In addition, the figures for the “% INHIBITION CELLS” value in the data set on male Lewis rats (@ 25 MG/KG (IP)) and with male Lewis rats (@ 50 MG/KG (PO)) were 0% and 29%, respectively. For the same compound, the “% INHIBITION EDEMA” value is listed as 5% with male Lewis rats (@ 25 MG/KG (IP)) and 31% in the data set with male Lewis rats (@ 50 MG/KG (PO)).
